# Test system: barnyardgrass (Echinochloa crus-galli)
# Assay: Test A pre-/postemergence greenhouse herbicide test, visual injury rating 0-100
# Type: in vivo
# Settings: Postemergence, 125 g ai/ha
# Method in brief: (§1)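 Seeds planted in loam-sand blend; preemergence directed soil spray and postemergence spray at 2–10 cm, one- to two-leaf stage, compounds formulated in non-phytotoxic solvent with surfactant. After about 10 days in greenhouse, injury rated visually against untreated controls, 0 (no effect) to 100 (complete control).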
row,Compound,"Plant response rating (0 to 100 scale), Barnyardgrass"
1,CCn1cc(C(=O)c2cccs2)c(-c2cc(F)cc(Cl)c2)n1 [Compound 24],0

# Same assay, conditions: Postemergence, 500 g ai/ha
row,Compound,"Plant response rating (0 to 100 scale), Barnyardgrass"
1,CCn1cc(C(=O)c2cccs2)c(-c2cc(F)cc(Cl)c2)n1 [Compound 24],10

# Same assay, conditions: Preemergence, 125 g ai/ha
row,Compound,"Barnyardgrass plant response rating (0 = no effect, 100 = complete control)"
1,CCn1cc(C(=O)c2cccs2)c(-c2cc(F)cc(Cl)c2)n1 [Compound 24],0

# Same assay, conditions: Preemergence, 500 g ai/ha
row,Compound,"Plant response rating (0 to 100 scale), Barnyardgrass"
1,CCn1cc(C(=O)c2cccs2)c(-c2cc(F)cc(Cl)c2)n1 [Compound 24],0

# Test system: pigweed (Amaranthus retroflexus)
# Assay: as above
# Type: in vivo
# Settings: Postemergence, 125 g ai/ha
# Method in brief: as §1
row,Compound,"Plant response rating (0 to 100 scale), Pigweed"
1,CCn1cc(C(=O)c2cccs2)c(-c2cc(F)cc(Cl)c2)n1 [Compound 24],80

# Same assay, conditions: Postemergence, 500 g ai/ha
row,Compound,"Plant response rating (0 to 100 scale), Pigweed"
1,CCn1cc(C(=O)c2cccs2)c(-c2cc(F)cc(Cl)c2)n1 [Compound 24],100

# Same assay, conditions: Preemergence, 125 g ai/ha
row,Compound,"Pigweed plant response rating (0 = no effect, 100 = complete control)"
1,CCn1cc(C(=O)c2cccs2)c(-c2cc(F)cc(Cl)c2)n1 [Compound 24],60

# Same assay, conditions: Preemergence, 500 g ai/ha
row,Compound,"Plant response rating (0 to 100 scale), Pigweed"
1,CCn1cc(C(=O)c2cccs2)c(-c2cc(F)cc(Cl)c2)n1 [Compound 24],80

# Test system: wheat (Triticum aestivum)
# Assay: as above
# Type: in vivo
# Settings: Postemergence, 125 g ai/ha
# Method in brief: as §1
row,Compound,"Plant response rating (0 to 100 scale), Wheat"
1,CCn1cc(C(=O)c2cccs2)c(-c2cc(F)cc(Cl)c2)n1 [Compound 24],0

# Same assay, conditions: Postemergence, 500 g ai/ha
row,Compound,"Plant response rating (0 to 100 scale), Wheat"
1,CCn1cc(C(=O)c2cccs2)c(-c2cc(F)cc(Cl)c2)n1 [Compound 24],0

# Same assay, conditions: Preemergence, 125 g ai/ha
row,Compound,"Wheat plant response rating (0 = no effect, 100 = complete control)"
1,CCn1cc(C(=O)c2cccs2)c(-c2cc(F)cc(Cl)c2)n1 [Compound 24],0

# Same assay, conditions: Preemergence, 500 g ai/ha
row,Compound,"Plant response rating (0 to 100 scale), Wheat"
1,CCn1cc(C(=O)c2cccs2)c(-c2cc(F)cc(Cl)c2)n1 [Compound 24],0

# Test system: corn (Zea mays)
# Assay: as above
# Type: in vivo
# Settings: Postemergence, 125 g ai/ha
# Method in brief: as §1
row,Compound,"Plant response rating (0 to 100 scale), Corn"
1,CCn1cc(C(=O)c2cccs2)c(-c2cc(F)cc(Cl)c2)n1 [Compound 24],0

# Same assay, conditions: Postemergence, 500 g ai/ha
row,Compound,"Plant response rating (0 to 100 scale), Corn"
1,CCn1cc(C(=O)c2cccs2)c(-c2cc(F)cc(Cl)c2)n1 [Compound 24],0

# Same assay, conditions: Preemergence, 125 g ai/ha
row,Compound,"Corn plant response rating (0 = no effect, 100 = complete control)"
1,CCn1cc(C(=O)c2cccs2)c(-c2cc(F)cc(Cl)c2)n1 [Compound 24],0

# Same assay, conditions: Preemergence, 500 g ai/ha
row,Compound,"Plant response rating (0 to 100 scale), Corn"
1,CCn1cc(C(=O)c2cccs2)c(-c2cc(F)cc(Cl)c2)n1 [Compound 24],0

# Test system: morningglory (Ipomoea spp.)
# Assay: as above
# Type: in vivo
# Settings: Postemergence, 125 g ai/ha
# Method in brief: as §1
row,Compound,"Plant response rating (0 to 100 scale), Morningglory"
1,CCn1cc(C(=O)c2cccs2)c(-c2cc(F)cc(Cl)c2)n1 [Compound 24],0

# Same assay, conditions: Postemergence, 500 g ai/ha
row,Compound,"Plant response rating (0 to 100 scale), Morningglory"
1,CCn1cc(C(=O)c2cccs2)c(-c2cc(F)cc(Cl)c2)n1 [Compound 24],10

# Same assay, conditions: Preemergence, 125 g ai/ha
row,Compound,"Morningglory plant response rating (0 = no effect, 100 = complete control)"
1,CCn1cc(C(=O)c2cccs2)c(-c2cc(F)cc(Cl)c2)n1 [Compound 24],0

# Same assay, conditions: Preemergence, 500 g ai/ha
row,Compound,"Plant response rating (0 to 100 scale), Morningglory"
1,CCn1cc(C(=O)c2cccs2)c(-c2cc(F)cc(Cl)c2)n1 [Compound 24],0

# Test system: velvetleaf (Abutilon theophrasti)
# Assay: as above
# Type: in vivo
# Settings: Postemergence, 125 g ai/ha
# Method in brief: as §1
row,Compound,"Plant response rating (0 to 100 scale), Velvetleaf"
1,CCn1cc(C(=O)c2cccs2)c(-c2cc(F)cc(Cl)c2)n1 [Compound 24],40

# Same assay, conditions: Postemergence, 500 g ai/ha
row,Compound,"Plant response rating (0 to 100 scale), Velvetleaf"
1,CCn1cc(C(=O)c2cccs2)c(-c2cc(F)cc(Cl)c2)n1 [Compound 24],90

# Same assay, conditions: Preemergence, 125 g ai/ha
row,Compound,"Velvetleaf plant response rating (0 = no effect, 100 = complete control)"
1,CCn1cc(C(=O)c2cccs2)c(-c2cc(F)cc(Cl)c2)n1 [Compound 24],0

# Same assay, conditions: Preemergence, 500 g ai/ha
row,Compound,"Plant response rating (0 to 100 scale), Velvetleaf"
1,CCn1cc(C(=O)c2cccs2)c(-c2cc(F)cc(Cl)c2)n1 [Compound 24],0

# Test system: giant foxtail (Setaria faberii)
# Assay: as above
# Type: in vivo
# Settings: Postemergence, 125 g ai/ha
# Method in brief: as §1
row,Compound,"Plant response rating (0 to 100 scale), Foxtail, Giant"
1,CCn1cc(C(=O)c2cccs2)c(-c2cc(F)cc(Cl)c2)n1 [Compound 24],0

# Same assay, conditions: Postemergence, 500 g ai/ha
row,Compound,"Plant response rating (0 to 100 scale), Foxtail, Giant"
1,CCn1cc(C(=O)c2cccs2)c(-c2cc(F)cc(Cl)c2)n1 [Compound 24],10

# Same assay, conditions: Preemergence, 125 g ai/ha
row,Compound,"Foxtail, Giant plant response rating (0 = no effect, 100 = complete control)"
1,CCn1cc(C(=O)c2cccs2)c(-c2cc(F)cc(Cl)c2)n1 [Compound 24],0

# Same assay, conditions: Preemergence, 500 g ai/ha
row,Compound,"Plant response rating (0 to 100 scale), Foxtail, Giant"
1,CCn1cc(C(=O)c2cccs2)c(-c2cc(F)cc(Cl)c2)n1 [Compound 24],0

# Test system: large (Lg) crabgrass (Digitaria sanguinalis)
# Assay: as above
# Type: in vivo
# Settings: Postemergence, 125 g ai/ha
# Method in brief: as §1
row,Compound,"Plant response rating (0 to 100 scale), Crabgrass, Large"
1,CCn1cc(C(=O)c2cccs2)c(-c2cc(F)cc(Cl)c2)n1 [Compound 24],10

# Same assay, conditions: Postemergence, 500 g ai/ha
row,Compound,"Plant response rating (0 to 100 scale), Crabgrass, Large"
1,CCn1cc(C(=O)c2cccs2)c(-c2cc(F)cc(Cl)c2)n1 [Compound 24],20

# Same assay, conditions: Preemergence, 125 g ai/ha
row,Compound,"Crabgrass, Large plant response rating (0 = no effect, 100 = complete control)"
1,CCn1cc(C(=O)c2cccs2)c(-c2cc(F)cc(Cl)c2)n1 [Compound 24],0

# Same assay, conditions: Preemergence, 500 g ai/ha
row,Compound,"Plant response rating (0 to 100 scale), Crabgrass, Large"
1,CCn1cc(C(=O)c2cccs2)c(-c2cc(F)cc(Cl)c2)n1 [Compound 24],20

# Test system: sedge, umbrella (small-flower umbrella sedge, Cyperus difformis)
# Assay: Test B flooded paddy test, plant response rating 0-100
# Type: in vivo
# Settings: Flood, 250 g ai/ha; scale 0 to 100 (0 no effect, 100 complete control); 13 to 15 days
# Description: (§2) At time of treatment, test pots were flooded to 3 cm above the soil surface, treated by application of test compounds directly to the paddy water, and then maintained at that water depth for the duration of the test. Treated plants and controls were maintained in a greenhouse for 13 to 15 days, after which time all species were compared to controls and visually evaluated. […] A dash (-) response means no test result.
row,Compound,"Plant response rating, Sedge, Umbrella"
1,CCn1cc(C(=O)c2cccs2)c(-c2cc(F)cc(Cl)c2)n1 [Compound 24],0

# Test system: barnyardgrass (Echinochloa crus-galli)
# Assay: as above
# Type: in vivo
# Settings: Flood, 250 g ai/ha; scale 0 to 100 (0 no effect, 100 complete control); 13 to 15 days
# Description: as §2
row,Compound,"Plant response rating, Barnyardgrass"
1,CCn1cc(C(=O)c2cccs2)c(-c2cc(F)cc(Cl)c2)n1 [Compound 24],0

# Test system: ducksalad (Heteranthera limosa)
# Assay: as above
# Type: in vivo
# Settings: Flood, 250 g ai/ha; scale 0 to 100 (0 no effect, 100 complete control); 13 to 15 days
# Description: as §2
row,Compound,"Plant response rating, Ducksalad"
1,CCn1cc(C(=O)c2cccs2)c(-c2cc(F)cc(Cl)c2)n1 [Compound 24],0

# Test system: rice (Oryza sativa)
# Assay: as above
# Type: in vivo
# Settings: Flood, 250 g ai/ha; scale 0 to 100 (0 no effect, 100 complete control); 13 to 15 days
# Description: as §2
row,Compound,"Plant response rating, Rice"
1,CCn1cc(C(=O)c2cccs2)c(-c2cc(F)cc(Cl)c2)n1 [Compound 24],0

# From patent US10167262B2, “Herbicidal substituted 3-arylpyrazoles” (FMC CORPORATION, priority 2014, dated 2019)
